Where a name gives a salt, the structure may show the parent alone. Read-outs that look alike come from different tables or passages of the source.
What was measured:
human PRMT6 = target: T1, human PRMT6 (Homo sapiens, UniProt Q96LA8); assay: PRMT6 Biochemical Assay (3H-SAM Flashplate, peptide substrate)
T1 construct: Flag-PRMT6-His; made in house; host or cells: HEK 293F cells (BacMam baculovirus)
In short: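 Flag-PRMT6-His, expressed in mammalian cells from a BacMam vector, was preincubated with compound for 30 min at room temperature in Bicine pH 7.6 buffer with TCEP, BSG and Tween 20. Reactions were started with ³H-SAM and a biotinylated histone H4 36-50 peptide, then stopped with cold SAM (400 uM final). Labeled peptide was captured on streptavidin Flashplates, counted, and fitted to a 3- or 4-parameter curve.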

[1] = test system: mono-methyl arginine in RKO cells; assay: RKO Methylation Assay, In Cell Western (ICW) for mono-methyl arginine and DNA content; type: cell-based; conditions: for EC30: Homo sapiens, RKO, 72 h
In short: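 RKO cells treated with compound for 72 hours at 37 °C, then methanol-fixed and stained overnight at 4 °C with anti-mono-methyl arginine antibody, plus DRAQ5 for DNA. Signal ratio from 700 and 800 nm infrared scans normalized to DMSO (minimum) and 20 μM reference compound (maximum); EC30 from triplicate curves.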

[2] = Biochemical IC50 PRMT6, single experiment or average of multiple experiments
[3] = RKO cells, 72 hours, mono-methyl arginine, percent activation, single experiment or average of multiple experiments, read-out: EC30 (In Cell Western data, Numerical)
[4] = read-out: EC30 (In Cell Western data, Numerical, μM)

T1 sequence (Q96LA8 with tags, fused parts or gaps): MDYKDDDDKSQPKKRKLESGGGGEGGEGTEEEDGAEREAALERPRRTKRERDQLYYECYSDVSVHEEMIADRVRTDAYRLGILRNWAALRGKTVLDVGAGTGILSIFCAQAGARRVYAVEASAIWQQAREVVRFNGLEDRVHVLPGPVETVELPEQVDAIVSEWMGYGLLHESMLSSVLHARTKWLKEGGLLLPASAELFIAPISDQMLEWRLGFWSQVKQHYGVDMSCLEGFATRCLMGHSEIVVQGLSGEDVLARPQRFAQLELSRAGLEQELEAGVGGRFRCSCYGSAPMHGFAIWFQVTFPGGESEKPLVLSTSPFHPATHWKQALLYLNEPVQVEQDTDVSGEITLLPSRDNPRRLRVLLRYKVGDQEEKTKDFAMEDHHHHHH

Compound | IC50 (human PRMT6; [2]) | EC30 [1, 3] | also measured
CNCCN(C)Cc1c[nH]nc1-c1ccc(OC)cc1OC [Compound 55] |  |  | EC30 (In Cell Western data) ([1]; RKO cells, 72 hours, mono-methyl arginine, percent activation, class symbols): C (“C” indicates an EC30 ≧ 12.01 μM); IC50 (human PRMT6; single experiment or average of multiple experiments, read-out: Biochemical IC50 PRMT6): 87 nM
CNCCN(C)Cc1cn(CCCC(O)CO)nc1-c1ccc(F)cc1 (stereo not shown) [Compound 30] | 565 nM |  | 
CNCCN(C)Cc1c[nH]nc1-c1cccc(O)c1 [Compound 26] | 22.5 nM |  | 
CNCCN(C)Cc1c[nH]nc1-c1ccc(Oc2ccccc2)cc1 [Compound 37] | 3.29 nM | 0.05 µM | 
CCCc1ccc(-c2n[nH]cc2CN(C)CCNC)cc1 [Compound 20] | 7.79 nM | 0.18 µM | 
CNCCN(C)Cc1c[nH]nc1-c1ccc(F)cc1 [Compound 2, N^1-((3-(4-fluorophenyl)-1H-pyrazol-4-yl)methyl)-N^1,N^2-dimethylethane-1,2-diamine] | 96.1 nM |  | EC30 [1, 4]: 1.12 µM
CNCCN(C)Cc1c[nH]nc1-c1ccc(O)cc1 [Compound 27] | 18.5 nM | 12.3 µM | 
CNCCN(C)Cc1c[nH]nc1-c1ccc(N)cc1 [Compound 33] | 37.9 nM |  | 
CNCCN(C)Cc1c[nH]nc1-c1ccccc1OC [Compound 23] | 183 nM |  | 
CNCCN(C)Cc1c[nH]nc1-c1cccc(OC)c1 [Compound 24] | 26.2 nM |  | 
CNCCN(C)Cc1c[nH]nc1-c1ccc(OC)cc1 [Compound 25] | 10.9 nM |  | 
CNCCN(C)Cc1c[nH]nc1-c1cccc(C#N)c1 [Compound 22] | 11.9 nM |  | 
CNCCN(C)Cc1c[nH]nc1-c1cccc([N+](=O)[O-])c1 [Compound 21] | 12.2 nM |  | 
CNCCN(C)Cc1c[nH]nc1-c1ccc(C)cc1C [Compound 29] | 61.7 nM |  | 
CNCCN(C)Cc1cnn(CCCC(O)CO)c1-c1ccc(F)cc1 (stereo not shown) [Compound 31] | 110 nM |  | 
CCNC(=O)c1cccc(-c2n[nH]cc2CN(C)CCNC)c1 [Compound 43] | 51.9 nM |  | 

Further lines, with some results ahead:

IC50 (human PRMT6; [2]) | Compound | EC30 [1, 3] | also measured
42.8 nM | CNCCN(C)Cc1c[nH]nc1-c1cc(F)ccc1F [Compound 50] |  | 
31.6 nM | CNCCN(C)Cc1n[nH]cc1-c1cc(Cl)c(OC(C)C)c(Cl)c1 [Compound 273] | 1.3 µM | 
748 nM | CNCCN(C)Cc1cn(CCOC)nc1-c1ccc(OC(C)C)cc1 [Compound 253, N1-((3-(4-isopropoxyphenyl)-1-(2-methoxyethyl)-1H-pyrazol-4-yl)methyl)-N1,N2-dimethylethane-1,2-diamine hydrochloride] |  | EC30 [1, 4]: 8 µM
627 nM | CNCCN(C)Cc1cn(CCC(O)CO)nc1-c1ccc(F)cc1 (stereo not shown) [Compound 59] |  | 
1.24 nM | CNCCN(C)Cc1n[nH]cc1-c1ccc(Oc2cccc(F)c2)cc1 [Compound 270] | 1.06 µM | 
9.95 nM | CNCCN(C)Cc1c[nH]nc1-c1ccc(F)c(F)c1 [Compound 51] |  | 
6.14 nM | CNCCN(C)Cc1c[nH]nc1-c1ccc2ccccc2c1 [Compound 58] |  | 
243 nM | CNCCN(C)Cc1c[nH]nc1-c1cc(OC(C)C)cc(C(C)C)c1 [Compound 260] | 6.07 µM | 
2.19 nM | CNCCN(C)Cc1c[nH]nc1-c1ccc(Oc2cccc(OC)c2)cc1 [Compound 230] | 0.206 µM | 
39.3 nM | CNCCN(C)Cc1c[nH]nc1-c1ccc(F)cc1F [Compound 49] |  | 
> 1000 nM | CNCCN(C)Cc1n[nH]cc1-c1cc(OC(C)C)cc(C(C)C)c1 [Compound 272] | > 20 µM | 
14.6 nM | CNCCN(C)Cc1n[nH]cc1-c1ccc(Oc2ccccc2)c(C(=O)NC)c1 [Compound 240] | 6.45 µM | 
6.7 nM | CN(CCN)Cc1c[nH]nc1-c1ccc(C#N)cc1 [Compound 68] | 0.775 µM | 
10.3 nM | CNCCN(C)Cc1c[nH]nc1-c1cccc2ccccc12 [Compound 57] |  | 
423 nM | CN(CCN)Cc1cnn(CCO)c1-c1ccc(F)cc1 [Compound 65] |  | 
8.92 nM | CNCCN(C)Cc1c[nH]nc1-c1ccc(OC)c(F)c1 [Compound 52] |  | 
1040 nM | CN(CCN)Cc1cn(CCO)nc1-c1ccc(F)cc1 [Compound 66] |  | 

Reference: patent US9776972B2, “Pyrazole derivatives as arginine methyltransferase inhibitors and uses thereof” (priority 2013, dated 2017)
